Source: ChEMBL document CHEMBL1141727, “Isolation and cytotoxic evaluation of marine sponge-derived norterpene peroxides” (J Nat Prod, 1998)

Columns and labels:
Type in all cases: functional
[1] = system: OVCAR-4; assay: Growth inhibition of human OVCAR4 cells
[2] = system: KM12; assay: Growth inhibition of human KM12 cells
[3] = system: SR; assay: Growth inhibition of human SR cells
[4] = system: A498; assay: Growth inhibition of human A498 cells
[5] = system: PO3; assay: Growth inhibition of mouse PO3 cells assessed as zone units at 50 ug/disk by disk diffusion agar colony formation assay
[6] = system: DU-145; assay: Growth inhibition of human DU145 cells
[7] = system: UACC-62; assay: Growth inhibition of human UACC62 cells
[8] = system: HCT-116; assay: Growth inhibition of human HCT116 cells
[9] = system: Malme-3M; assay: Growth inhibition of human MALME-3M cells
[10] = Growth inhibition of human MCF7/ADR resistant cells; conditions: NCI/ADR-RES
[11] = system: OVCAR-5; assay: Growth inhibition of human OVCAR5 cells
[12] = system: HOP-62; assay: Growth inhibition of human HOP62 cells
[13] = system: U-251; assay: Growth inhibition of human U251 cells
[14] = system: OVCAR-3; assay: Growth inhibition of human OVCAR-3 cells
[15] = system: SNB-19; assay: Growth inhibition of human SNB19 cells
[16] = system: COLO 205; assay: Growth inhibition of human COLO205 cells
[17] = system: MDA-MB-435; assay: Growth inhibition of human MDA-MB-435 cells
[18] = system: 786-0; assay: Growth inhibition of human 786-0 cells
[19] = Growth inhibition of human H125 cells assessed as zone units at 50 ug/disk by disk diffusion agar colony formation assay
[20] = system: ACHN; assay: Growth inhibition of human ACHN cells
[21] = system: MCF7; assay: Growth inhibition of human MCF7 cells
[22] = system: M14; assay: Growth inhibition of human M14 cells
[23] = system: IGROV-1; assay: Growth inhibition of human IGROV1 cells
[24] = system: SK-MEL-5; assay: Growth inhibition of human SK-MEL-5 cells
[25] = system: SK-OV-3; assay: Growth inhibition of human SKOV3 cells
[26] = system: NCI-H23; assay: Growth inhibition of human NCI-H23 cells
[27] = system: CAKI-1; assay: Growth inhibition of human Caki1 cells
[28] = system: SK-MEL-28; assay: Growth inhibition of human SK-MEL-28 cells
[29] = system: SNB-75; assay: Growth inhibition of human SNB75 cells
[30] = system: L1210; assay: Growth inhibition of mouse L1210 cells assessed as zone units at 50 ug/disk by disk diffusion agar colony formation assay
[31] = system: HL-60(TB); assay: Growth inhibition of human HL-60(TB) cells
[32] = system: NCI-H522; assay: Growth inhibition of human NCI-H522 cells
[33] = system: CCRF-CEM; assay: Growth inhibition of human CCRF-CEM cells
[34] = system: MDA-MB-231; assay: Growth inhibition of human MDA-MB-231 cells
[35] = system: A549; assay: Growth inhibition of human A549 cells
[36] = system: SF-539; assay: Growth inhibition of human SF539 cells
[37] = system: HCT-15; assay: Growth inhibition of human HCT15 cells
[38] = system: HOP-92; assay: Growth inhibition of human HOP92 cells
[39] = system: NCI-H226; assay: Growth inhibition of human NCI-H226 cells
[40] = system: NCI-H322M; assay: Growth inhibition of human NCI-H322M cells
[41] = system: SK-MEL-2; assay: Growth inhibition of human SK-MEL-2 cells
[42] = system: TK-10; assay: Growth inhibition of human TK10 cells
[43] = Growth inhibition of human […] cells
[44] = system: HT-29; assay: Growth inhibition of human HT-29 cells
[45] = system: RXF 393; assay: Growth inhibition of human […] cells
[46] = system: MOLT-4; assay: Growth inhibition of human MOLT4 cells
[47] = system: UO-31; assay: Growth inhibition of human UO31 cells
[48] = system: OVCAR-8; assay: Growth inhibition of human OVCAR8 cells
[49] = system: SW-620; assay: Growth inhibition of human SW620 cells
[50] = system: P388; assay: Growth inhibition of mouse P388 cells assessed as zone units at 50 ug/disk by disk diffusion agar colony formation assay
[51] = system: SF-295; assay: Growth inhibition of human SF295 cells
[52] = system: LOX IMVI; assay: Growth inhibition of human LOXIMVI cells
[53] = system: EKVX; assay: Growth inhibition of human EKVX cells
[54] = system: UACC-257; assay: Growth inhibition of human UACC257 cells
[55] = system: HCC 2998; assay: Growth inhibition of human HCC2998 cells
[56] = system: K562; assay: Growth inhibition of human K562 cells
[57] = Growth inhibition of human H116 cells assessed as zone units at 50 ug/disk by disk diffusion agar colony formation assay
[58] = system: PC-3; assay: Growth inhibition of human PC3 cells
[59] = system: NCI-H460; assay: Growth inhibition of human NCI-H460 cells
[60] = system: SF-268; assay: Growth inhibition of human SF268 cells
[61] = system: MDA-N; assay: Growth inhibition of human MDA-N cells
[62] = system: SN12C; assay: Growth inhibition of human SN12C cells
[63] = Growth inhibition of mouse M17/ADR cells assessed as zone units at 50 ug/disk by disk diffusion agar colony formation assay
[64] = system: BT-549; assay: Growth inhibition of human BT549 cells
[65] = system: T47D; assay: Growth inhibition of human T47D cells

C=C1CCCC(C)(C)C1(O)CC/C(C)=C/CC[C@]1(C)CC[C@@H]([C@@H](C)C(=O)OC)OO1 (some centres not stated) [MUQUBILIN B]
GI50 [1]: > 17500 nM
GI50 [2]: > 17500 nM
GI50 [3]: > 17500 nM
GI50 [4]: > 17500 nM
Activity [5]: 90 Zone units
GI50 [6]: > 17500 nM
GI50 [7]: > 17500 nM
GI50 [8]: > 17500 nM
GI50 [9]: > 17500 nM
GI50 [10]: > 17500 nM
GI50 [11]: > 17500 nM
GI50 [12]: > 17500 nM
GI50 [13]: > 17500 nM
GI50 [14]: > 17500 nM
GI50 [15]: > 17500 nM
GI50 [16]: > 17500 nM
GI50 [17]: > 17500 nM
GI50 [18]: > 17500 nM
Activity [19]: 0 Zone units
GI50 [20]: > 17500 nM
GI50 [21]: > 17500 nM
GI50 [22]: > 17500 nM
GI50 [23]: 2420 nM
GI50 [24]: > 17500 nM
GI50 [25]: > 17500 nM
GI50 [26]: > 17500 nM
GI50 [27]: > 17500 nM
GI50 [28]: > 17500 nM
GI50 [29]: 15000 nM
Activity [30]: 80 Zone units
GI50 [31]: > 17500 nM
GI50 [32]: 12800 nM
GI50 [33]: > 17500 nM
GI50 [34]: > 17500 nM
GI50 [35]: > 17500 nM
GI50 [36]: > 17500 nM
GI50 [37]: > 17500 nM
GI50 [38]: > 17500 nM
GI50 [39]: > 17500 nM
GI50 [40]: > 17500 nM
GI50 [41]: > 17500 nM
GI50 [42]: > 17500 nM
GI50 [43]: > 17500 nM
GI50 [44]: > 17500 nM
GI50 [45]: > 17500 nM
GI50 [46]: > 17500 nM
GI50 [47]: > 17500 nM
GI50 [48]: > 17500 nM
GI50 [49]: > 17500 nM
Activity [50]: 80 Zone units
GI50 [51]: > 17500 nM
GI50 [52]: 5220 nM
GI50 [53]: > 17500 nM
GI50 [54]: > 17500 nM
GI50 [55]: > 17500 nM
GI50 [56]: > 17500 nM

C=C1CCC[C@H]2[C@](C)(CC[C@]3(C)CC[C@@H]([C@@H](C)C(=O)O)OO3)[C@@H](C)CC[C@]12C [SIGMOSCEPTRELLIN C]
GI50 [1]: 950 nM
GI50 [2]: 950 nM
Activity [57]: 230 Zone units
GI50 [4]: 1590 nM
Activity [5]: 190 Zone units
GI50 [8]: 1060 nM
GI50 [58]: 1770 nM
GI50 [10]: 770 nM
GI50 [11]: 2720 nM
GI50 [12]: 1040 nM
GI50 [13]: 930 nM
GI50 [14]: 990 nM
GI50 [15]: > 5000 nM
GI50 [16]: 970 nM
GI50 [59]: 600 nM
GI50 [17]: 2060 nM
GI50 [18]: 500 nM
GI50 [60]: 1040 nM
GI50 [20]: 920 nM
GI50 [21]: 3790 nM
GI50 [22]: > 5000 nM
GI50 [23]: 100 nM
GI50 [24]: 1940 nM
GI50 [61]: 910 nM
GI50 [25]: 970 nM
GI50 [62]: 780 nM
GI50 [26]: 1000 nM
GI50 [27]: 600 nM
GI50 [28]: 2370 nM
GI50 [29]: 830 nM
Activity [30]: 220 Zone units
GI50 [31]: 140 nM
GI50 [34]: 1810 nM
GI50 [35]: 940 nM
GI50 [36]: 1070 nM
GI50 [37]: 1160 nM
GI50 [38]: 1080 nM
GI50 [39]: > 5000 nM
GI50 [40]: 4190 nM
GI50 [41]: > 5000 nM
GI50 [42]: 1490 nM
GI50 [44]: 1030 nM
GI50 [45]: 2950 nM
Activity [63]: 220 Zone units
GI50 [46]: 840 nM
GI50 [47]: 900 nM
GI50 [48]: 2530 nM
GI50 [49]: 1160 nM
Activity [50]: 220 Zone units
GI50 [64]: 960 nM
GI50 [51]: 820 nM
GI50 [52]: 160 nM
GI50 [65]: 860 nM
GI50 [53]: 1090 nM
GI50 [54]: > 5000 nM
GI50 [55]: 1030 nM
